The values below come from patent US12552783B2, “Modulators of proteolysis and associated methods of use” (Arvinas Operations, Inc., priority 2018, dated 2026).

Molecules are shown by their SMILES.

As usually defined, the Dmax is the largest share of the target that was removed. Lower therefore signals a partial loss of target.

This assay deals with KRas (Homo sapiens, UniProt P01116, G12C). Put plainly: KRas degradation in NCI-H2030 cells by Western blot, normalized to GAPDH (data of Table 14). It counts as cell-based. Details: host or cells: NCI-H2030. The following applies: H2030 cells; for Percent Degradation at Indicated Concentration (μM): 0.3: 0.3 μM; for Percent Degradation at Indicated Concentration (μM): 1: 1 μM; for Percent Degradation at Indicated Concentration (μM): 3: 3 μM; for Dmax: NCI-H2030. A digest of the protocol: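 KRas/GAPDH band ratio vs DMSO lane gives % degradation; values under 25% were estimated visually, the rest quantitated. Cells are G12C homozygous, serum-free for 24 h, then dosed at 0.3/1/3 μM (0.1% DMSO). VHL-based compounds 24 h, others 72 h.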
On the technique in general: A western blot detects proteins with antibodies after separation by electrophoresis.

Turning to `CCC(=O)N1CCN(c2nc(NCCC(=O)N(C)CCOCCOCCOCCOCCNc3cccc4c3C(=O)N(C3CCC(=O)NC3=O)C4=O)nc3c(F)c(-c4cc(O)cc5ccccc45)c(Cl)cc23)CC1` (stereo not shown) [compound 45, 3-((6-chloro-8-fluoro-7-(3-hydroxynaphthalen-1-yl)-4-(4-propionylpiperazin-1-yl)quinazolin-2-yl)amino)-N-(14-((2-(2,6-dioxopiperidin-3-yl)-1,3-dioxoisoindolin-4-yl)amino)-3,6,9,12-tetraoxatetradecyl)-N-methylpropanamide], the “Percent Degradation at Indicated Concentration (μM): 0.3” value (shortened to “Percent Degradation … 0.3”) was “C (C ≤ 35)”, the “Percent Degradation at Indicated Concentration (μM): 1” value (“Percent Degradation … (μM): 1” for short) is “C (C ≤ 35)”, the “Percent Degradation at Indicated Concentration (μM): 3” value (“Percent Degradation … (μM): 3” below) is “C (C ≤ 35)” and the Dmax is no more than 35%.
On to `CCC(=O)N1CCN(c2nc(NCCC(=O)N(C)CCOc3ccc4c(c3)C(=O)N(C3CCC(=O)NC3=O)C4=O)nc3c(F)c(-c4cc(O)cc5ccccc45)c(Cl)cc23)CC1` (stereo not shown) [compound 46, 3-((6-chloro-8-fluoro-7-(3-hydroxynaphthalen-1-yl)-4-(4-propionylpiperazin-1-yl)quinazolin-2-yl)amino)-N-(2-((2-(2,6-dioxopiperidin-3-yl)-1,3-dioxoisoindolin-5-yl)oxy)ethyl)-N-methylpropanamide], for which the “Percent Degradation … 0.3” value is on record as “C (C ≤ 35)”, the “Percent Degradation … (μM): 1” value is recorded as “C (C ≤ 35)”, the “Percent Degradation … (μM): 3” value is reported as “C (C ≤ 35)” and the greatest degradation seen (Dmax) is no more than 35%.
Turning to `CCC(=O)N1CCN(c2nc(NCCC(=O)N(C)CCOCCOc3ccc4c(c3)C(=O)N(C3CCC(=O)NC3=O)C4=O)nc3c(F)c(-c4cc(O)cc5ccccc45)c(Cl)cc23)CC1` (stereo not shown) [compound 47, 3-((6-chloro-8-fluoro-7-(3-hydroxynaphthalen-1-yl)-4-(4-propionylpiperazin-1-yl)quinazolin-2-yl)amino)-N-(2-(2-((2-(2,6-dioxopiperidin-3-yl)-1,3-dioxoisoindolin-5-yl)oxy)ethoxy)ethyl)-N-methylpropanamide], the “Percent Degradation … 0.3” value was “C (C ≤ 35)”, the “Percent Degradation … (μM): 1” value is “C (C ≤ 35)”, the “Percent Degradation … (μM): 3” value is listed as “C (C ≤ 35)” and the maximal degradation (Dmax) is no more than 35%.
For `CCC(=O)N1CCN(c2nc(NCCC(=O)N(C)CCOCCOCCOc3ccc4c(c3)C(=O)N(C3CCC(=O)NC3=O)C4=O)nc3c(F)c(-c4cc(O)cc5ccccc45)c(Cl)cc23)CC1` (stereo not shown) [compound 48, 3-((6-chloro-8-fluoro-7-(3-hydroxynaphthalen-1-yl)-4-(4-propionylpiperazin-1-yl)quinazolin-2-yl)amino)-N-(2-(2-(2-((2-(2,6-dioxopiperidin-3-yl)-1,3-dioxoisoindolin-5-yl)oxy)ethoxy)ethoxy)ethyl)-N-methylpropanamide], the “Percent Degradation … 0.3” value was “C (C ≤ 35)”, the “Percent Degradation … (μM): 1” value is “C (C ≤ 35)”, the “Percent Degradation … (μM): 3” value is recorded as “C (C ≤ 35)” and the Dmax was no more than 35%.
Turning to `CCC(=O)N1CCN(c2nc(NCCC(=O)N(C)CCOCCOCCOCCOc3ccc4c(c3)C(=O)N(C3CCC(=O)NC3=O)C4=O)nc3c(F)c(-c4cc(O)cc5ccccc45)c(Cl)cc23)CC1` (stereo not shown) [compound 49, 3-((6-chloro-8-fluoro-7-(3-hydroxynaphthalen-1-yl)-4-(4-propionylpiperazin-1-yl)quinazolin-2-yl)amino)-N-(2-(2-(2-(2-((2-(2,6-dioxopiperidin-3-yl)-1,3-dioxoisoindolin-5-yl)oxy)ethoxy)ethoxy)ethoxy)ethyl)-N-methylpropanamide], the “Percent Degradation … 0.3” value is “C (C ≤ 35)”, the “Percent Degradation … (μM): 1” value is “C (C ≤ 35)”, the “Percent Degradation … (μM): 3” value is given as “C (C ≤ 35)” and the Dmax is no more than 35%.
Regarding `CCC(=O)N1CCN(c2nc(NCCC(=O)N(C)CCOCCOCCOCCOCCOc3ccc4c(c3)C(=O)N(C3CCC(=O)NC3=O)C4=O)nc3c(F)c(-c4cc(O)cc5ccccc45)c(Cl)cc23)CC1` (stereo not shown) [compound 50, 3-((6-chloro-8-fluoro-7-(3-hydroxynaphthalen-1-yl)-4-(4-propionylpiperazin-1-yl)quinazolin-2-yl)amino)-N-(14-((2-(2,6-dioxopiperidin-3-yl)-1,3-dioxoisoindolin-5-yl)oxy)-3,6,9,12-tetraoxatetradecyl)-N-methylpropanamide], the “Percent Degradation … 0.3” value is reported as “C (C ≤ 35)”, the “Percent Degradation … (μM): 1” value is listed as “C (C ≤ 35)”, the “Percent Degradation … (μM): 3” value was “C (C ≤ 35)” and the maximal degradation (Dmax) is no more than 35%.
Turning to `CCC(=O)N1CCN(c2nc(NCCC(=O)N(C)CCOCCOc3ccc4c(c3)CN(C3CCC(=O)NC3=O)C4=O)nc3c(F)c(-c4cc(O)cc5ccccc45)c(Cl)cc23)CC1` (stereo not shown) [compound 51, 3-((6-chloro-8-fluoro-7-(3-hydroxynaphthalen-1-yl)-4-(4-propionylpiperazin-1-yl)quinazolin-2-yl)amino)-N-(2-(2-((2-(2,6-dioxopiperidin-3-yl)-1-oxoisoindolin-5-yl)oxy)ethoxy)ethyl)-N-methylpropanamide], the “Percent Degradation … 0.3” value was “C (C ≤ 35)”, the “Percent Degradation … (μM): 1” value is listed as “C (C ≤ 35)”, the “Percent Degradation … (μM): 3” value is “C (C ≤ 35)” and the Dmax was no more than 35%.
As for `CCC(=O)N1CCN(c2nc(NCCC(=O)N(C)CCOCCOCCOc3ccc4c(c3)CN(C3CCC(=O)NC3=O)C4=O)nc3c(F)c(-c4cc(O)cc5ccccc45)c(Cl)cc23)CC1` (stereo not shown) [compound 52, 3-((6-chloro-8-fluoro-7-(3-hydroxynaphthalen-1-yl)-4-(4-propionylpiperazin-1-yl)quinazolin-2-yl)amino)-N-(2-(2-(2-((2-(2,6-dioxopiperidin-3-yl)-1-oxoisoindolin-5-yl)oxy)ethoxy)ethoxy)ethyl)-N-methylpropanamide], the “Percent Degradation … 0.3” value is “C (C ≤ 35)”, the “Percent Degradation … (μM): 1” value is “C (C ≤ 35)”, the “Percent Degradation … (μM): 3” value is on record as “C (C ≤ 35)” and the maximal degradation (Dmax) was no more than 35%.
As for `CCC(=O)N1CCN(c2nc(NCCC(=O)N(C)CCOCCOCCOCCOc3ccc4c(c3)CN(C3CCC(=O)NC3=O)C4=O)nc3c(F)c(-c4cc(O)cc5ccccc45)c(Cl)cc23)CC1` (stereo not shown) [compound 53, 3-((6-chloro-8-fluoro-7-(3-hydroxynaphthalen-1-yl)-4-(4-propionylpiperazin-1-yl)quinazolin-2-yl)amino)-N-(2-(2-(2-(2-((2-(2,6-dioxopiperidin-3-yl)-1-oxoisoindolin-5-yl)oxy)ethoxy)ethoxy)ethoxy)ethyl)-N-methylpropanamide], the “Percent Degradation … 0.3” value is “C (C ≤ 35)”, the “Percent Degradation … (μM): 1” value is given as “C (C ≤ 35)”, the “Percent Degradation … (μM): 3” value is on record as “C (C ≤ 35)” and the Dmax was no more than 35%.
Take `CCC(=O)N1CCN(c2nc(NCCC(=O)N(C)CCOCCOCCOCCOCCOc3ccc4c(c3)CN(C3CCC(=O)NC3=O)C4=O)nc3c(F)c(-c4cc(O)cc5ccccc45)c(Cl)cc23)CC1` (stereo not shown) [compound 54, 3-((6-chloro-8-fluoro-7-(3-hydroxynaphthalen-1-yl)-4-(4-propionylpiperazin-1-yl)quinazolin-2-yl)amino)-N-(14-((2-(2,6-dioxopiperidin-3-yl)-1-oxoisoindolin-5-yl)oxy)-3,6,9,12-tetraoxatetradecyl)-N-methylpropanamide]: the “Percent Degradation … 0.3” value is recorded as “C (C ≤ 35)”, the “Percent Degradation … (μM): 1” value is “C (C ≤ 35)”, the “Percent Degradation … (μM): 3” value is reported as “C (C ≤ 35)” and the Dmax was no more than 35%.
As for `C=CC(=O)N1CCN(c2nc(NCCC(=O)N(C)CCNc3cccc4c3C(=O)N(C3CCC(=O)NC3=O)C4=O)nc3c(F)c(-c4cc(O)cc5ccccc45)c(Cl)cc23)CC1` (stereo not shown) [compound 55, 3-((4-(4-acryloylpiperazin-1-yl)-6-chloro-8-fluoro-7-(3-hydroxynaphthalen-1-yl)quinazolin-2-yl)amino)-N-(2-((2-(2,6-dioxopiperidin-3-yl)-1,3-dioxoisoindolin-4-yl)amino)ethyl)-N-methylpropanamide], the “Percent Degradation … 0.3” value was “C (C ≤ 35)”, the “Percent Degradation … (μM): 1” value is on record as “C (C ≤ 35)” and the Dmax was no more than 35%. In addition, where the note is “0.1 μM”, the “Percent Degradation at Indicated Concentration (μM): 0.1” value was “C (C ≤ 35)”.
As to `C=CC(=O)N1CCN(c2nc(NCCC(=O)N(C)CCOCCNc3cccc4c3C(=O)N(C3CCC(=O)NC3=O)C4=O)nc3c(F)c(-c4cc(O)cc5ccccc45)c(Cl)cc23)CC1` (stereo not shown) [compound 56, 3-((4-(4-acryloylpiperazin-1-yl)-6-chloro-8-fluoro-7-(3-hydroxynaphthalen-1-yl)quinazolin-2-yl)amino)-N-(2-(2-((2-(2,6-dioxopiperidin-3-yl)-1,3-dioxoisoindolin-4-yl)amino)ethoxy)ethyl)-N-methylpropanamide], the “Percent Degradation … 0.3” value was “C (C ≤ 35)”, the “Percent Degradation … (μM): 1” value is reported as “C (C ≤ 35)”, the “Percent Degradation … (μM): 3” value is “C (C ≤ 35)” and the maximal degradation (Dmax) was no more than 35%.
Take `C=CC(=O)N1CCN(c2nc(NCCC(=O)N(C)CCOCCOCCNc3cccc4c3C(=O)N(C3CCC(=O)NC3=O)C4=O)nc3c(F)c(-c4cc(O)cc5ccccc45)c(Cl)cc23)CC1` (stereo not shown) [compound 57, 3-((4-(4-acryloylpiperazin-1-yl)-6-chloro-8-fluoro-7-(3-hydroxynaphthalen-1-yl)quinazolin-2-yl)amino)-N-(2-(2-(2-((2-(2,6-dioxopiperidin-3-yl)-1,3-dioxoisoindolin-4-yl)amino)ethoxy)ethoxy)ethyl)-N-methylpropanamide]: the “Percent Degradation … 0.3” value is “C (C ≤ 35)”, the “Percent Degradation … (μM): 1” value is on record as “C (C ≤ 35)”, the “Percent Degradation … (μM): 3” value is recorded as “C (C ≤ 35)” and the Dmax is no more than 35%.
